In US20220220041A1, “USE OF UREA AS AN ANTIMICROBIAL ADDITIVE IN AN AQUEOUS SUSPENSION” (Omya International AG, priority 2019, published 2022):

Legend:
Format in all cases: cell-based
[1] = tested on: non-sterile calcium carbonate slurry (H60), environmental bacteria; assay: Example 4 preservation efficacy: H60 slurry with 61% (w/w) urea solution, non-sterile H60 inoculum, TVC; conditions: 30° C.
Description: (§1) All quoted bacterial counts (Total viable counts (TVC) values), unless otherwise indicated, are given in cfu/ml and determined after at least 2 days following plate-out and incubation at 30° C. and in accordance with the counting method described in “Bestimmung von aerobe mesophilen Keimen”, Schweizerisches Lebensmittelbuch, chapter 56, section 7.01, edition of 1985, revised version of 1988.
(§2) Unless otherwise stated, per tryptic soy agar plate (TSA, prepared using BD 236950) 0.1 ml of a solution or suspension is plated. Counts from 10000 cfu/ml to 99999 cfu/ml are reported as >1E4 cfu/ml. Counts from 100000 cfu/ml to 999999 cfu/ml are reported as >1E5 cfu/ml. Counts above 1000000 cfu/ml are reported as >1E6 cfu/ml.
(§3) Non-sterile slurries (H60 or H90) contain contamination with environmental bacteria at a TVC>100000 cfu/ml. The contamination originates spontaneously and a bacterial burden of at least>100000 cfu/ml is confirmed prior use as inoculum by TVC. The following bacterial species are known to occur, as identified by 16S RNA sequencing or MALDI-TOF-MS analysis: Rhizobium radiobacter, Brevundimonas intermedia, Brevundimonas diminiuta, Sphingomonas sp., Pseudomonas stutzeri, Pseudomonas sp., Comomonas aquatic.
50 g sterile calcium carbonate slurry (H60) with a solid content of 78.3 wt.-%, based on the total weight of the H60 slurry are supplemented with 61% (w/w) urea solution to different final concentrations. The samples are inoculated with 1 ml non-sterile calcium carbonate slurry (H60). Samples are incubated at 30° C. and TVC and pH are determined at various time points (0 day, 1 day, 4, days, 11 days).

[2] = tested on: natural resident bacteria of industrial grade urea, not inoculated; assay: Example 3 preservation efficacy: H60 slurry with industrial grade urea solution, not inoculated, TVC; conditions: industrial grade urea 5.5%, calcium carbonate 69%, water 25.5% w/w, inoculum none, 30° C.
Description: as §1, §2
50 g sterile calcium carbonate slurry (H60) with a solid content of 77.3 wt.-%, based on the total weight of the H60 slurry is supplemented with industrial grade 50% (w/w) urea solution (Yara Canda Inc.) or water to different final concentrations. The industrial grade contained natural resident (i.e. bacteria in a non-growing state) bacteria. The bacterial of the industrial urea burden is 5 cfu/3 ml as determined by TVC. The species are identified by characterizing the grown colonies from the TVC by 16 S RNA sequencing, known to the person skilled in the art.
The species identified are Sporosarcina koreensis, (Gram positive, urease positive, spore forming), Paenibacillus sp., (Gram positive, urease positive, spore forming) and Halobacillus trueperi (Gram positive, urease negative, spore forming).
The samples are further artificially inoculated with 1 ml non-sterile calcium carbonate slurry (H60), 1 ml non-sterile calcium carbonate slurry (H90), 0.02 ml overnight culture of Escherichia coli (DSMZ 46295) and 0.02 ml overnight culture Pseudomonas putida. The control sample are not inoculated. […]

[3] = tested on: non-sterile calcium carbonate slurry (H90), environmental bacteria; assay: Example 2 preservation efficacy: H60 slurry with 61 wt.-% urea solution, non-sterile H90 inoculum, TVC; conditions: 30° C.
Description: as §1, §2, §3
(§4) 50 g sterile slurry H60 with a solid content of 76.5 wt.-%, based on the total weight of the H60 slurry is supplemented with different amounts of 61 wt.-% urea solution or water. The samples are then inoculated with 1 ml non-sterile calcium carbonate slurry (H60), 1 ml non-sterile calcium carbonate slurry (H90), 0.02 ml overnight culture of Escherichia coli (DSMZ 46295) and 0.02 ml overnight culture of Pseudomonas putida. The control samples are not inoculated. Samples are incubated at 30° C. and the TVC and pH are determined at various time points (0 day, 1 day, 4, days, 8 days, 9 days and/or 13 days).

[4] = tested on: Escherichia coli (DSMZ 46295); assay: Example 2 preservation efficacy: H60 slurry with 61 wt.-% urea solution, E. coli inoculum, TVC
Description: as §1, §2
For the preparation of inoculum with a single bacterial species (for example Escherichia coli (DSMZ 46295) or Pseudomonas putida), bacteria are spread onto Tryptic soy broth agar (BD, 236950) by dilution streaking followed by incubation at 30° C. for at least 24 h until colonies appear. Overnight cultures are generated by inoculation of 3 ml Tryptic soy broth (Fluka 22092) with a single colony followed incubation with agitation at […] at 30° C. for 24 h.
as §4

[5] = urea 0.40%, calcium carbonate 75.61%, water 23.99% w/w
[6] = urea 1.10%, calcium carbonate 75.48%, water 23.42% w/w
[7] = urea 2.80%, calcium carbonate 75.21%, water 21.98% w/w
[8] = Table 2, urea 2.75%, calcium carbonate 73.1%, water 24.15% w/w
[9] = Table 2, urea 7.6%, calcium carbonate 67.1%, water 25.3% w/w
[10] = Table 3, urea 0.65%, calcium carbonate 75.7%, water 23.65% w/w
[11] = Table 3, urea 2.75%, calcium carbonate 73.1%, water 24.15% w/w
[12] = Table 2, urea 2.75%, calcium carbonate 73.1%, water 24.15% w/w, inoculum E. coli, 30° C.
[13] = Table 2, urea 7.6%, calcium carbonate 67.1%, water 25.3% w/w, inoculum E. coli, 30° C.
[14] = Table 3, urea 0.65%, calcium carbonate 75.7%, water 23.65% w/w, inoculum E. coli, 30° C.
[15] = Table 3, urea 1.28%, calcium carbonate 74.9%, water 23.82% w/w, inoculum E. coli, 30° C.
[16] = Table 3, urea 2.75%, calcium carbonate 73.1%, water 24.15% w/w, inoculum E. coli, 30° C.

NC(N)=O [urea]
TVC cfu/ml Day 4 [1, 5]: >1E5 cfu/ml
TVC cfu/ml Day 11 [1, 5]: >1E5 cfu/ml
TVC cfu/ml Day 1 ([1]; urea 0.40%, calcium carbonate 75.61%, water 23.99% w/w, detection limit 100 cfu/ml): >1E5 cfu/ml
TVC cfu/ml Day 1 [1, 6]: >1E5 cfu/ml
TVC cfu/ml Day 4 [1, 6]: >1E5 cfu/ml
TVC cfu/ml Day 11 [1, 6]: >1E5 cfu/ml
TVC cfu/ml Day 1 [1, 7]: >1E4 cfu/ml
TVC cfu/ml Day 4 [1, 7]: 600 cfu/ml
TVC cfu/ml Day 11 [1, 7]: <100 cfu/ml
TVC cfu/ml Day 4 [2]: <100 cfu/ml
TVC cfu/ml Day 8 [2]: 100 cfu/ml
TVC cfu/ml Day 11 [2]: <100 cfu/ml
TVC cfu/ml Day 13 [2]: <100 cfu/ml
TVC cfu/ml Day 1 ([2]; detection limit 100 cfu/ml): <100 cfu/ml
TVC cfu/ml Day 1 [3, 8]: <100 cfu/ml
TVC cfu/ml Day 4 [3, 8]: <100 cfu/ml
TVC cfu/ml Day 8 [3, 8]: <100 cfu/ml
TVC cfu/ml Day 13 [3, 8]: <100 cfu/ml
TVC cfu/ml Day 1 [3, 9]: <100 cfu/ml
TVC cfu/ml Day 4 [3, 9]: <100 cfu/ml
TVC cfu/ml Day 8 [3, 9]: <100 cfu/ml
TVC cfu/ml Day 13 [3, 9]: <100 cfu/ml
TVC cfu/ml Day 1 [3, 10]: >1E5 cfu/ml
TVC cfu/ml Day 4 [3, 10]: >1E5 cfu/ml
TVC cfu/ml Day 1 [3, 11]: <100 cfu/ml
TVC cfu/ml Day 4 [3, 11]: <100 cfu/ml
TVC cfu/ml Day 9 [3, 11]: <100 cfu/ml
TVC cfu/ml Day 1 [4, 12]: <100 cfu/ml
TVC cfu/ml Day 4 [4, 12]: <100 cfu/ml
TVC cfu/ml Day 8 [4, 12]: 500 cfu/ml
TVC cfu/ml Day 13 [4, 12]: <100 cfu/ml
TVC cfu/ml Day 1 [4, 13]: <100 cfu/ml
TVC cfu/ml Day 4 [4, 13]: <100 cfu/ml
TVC cfu/ml Day 8 [4, 13]: <100 cfu/ml
TVC cfu/ml Day 13 [4, 13]: 100 cfu/ml
TVC cfu/ml Day 1 [4, 14]: >1E5 cfu/ml
TVC cfu/ml Day 4 [4, 14]: >1E5 cfu/ml
TVC cfu/ml Day 1 [4, 15]: <100 cfu/ml
TVC cfu/ml Day 4 [4, 15]: <100 cfu/ml
TVC cfu/ml Day 1 [4, 16]: <100 cfu/ml
TVC cfu/ml Day 4 [4, 16]: <100 cfu/ml
TVC cfu/ml Day 9 [4, 16]: <100 cfu/ml
preservation of calcium carbonate slurries from bacterial growth, duration ([4]; high urea concentrations, summary of tables 2 and 3, all inocula): at least 13 days
